Data as given in patent US7060721B1, “Imidazole compounds and medicinal use thereof” (Fujisawa Pharmaceutical Co., Ltd., priority 1998, dated 2006).

SMILES	melting point [°C]
Cc1nc(Cl)c(/C=C/C(=O)NS(=O)(=O)/C=C/c2ccccc2)n1Cc1ccc(-c2cccs2)cc1Cl [Example 4, (2E)-3-(4-chloro-1-(2-chloro-4-(2-thienyl)benzyl)-2-methylimidazol-5-yl)-N-(((E)-2-phenylethenyl)sulfonyl)-2-propenamide]	246 to 248
Cc1nc(Cl)c(/C=C/C(=O)NS(=O)(=O)/C=C/c2ccccc2)n1Cc1ccc(C#Cc2ccccc2)cc1Cl [Example 6, (2E)-3-(4-chloro-1-(2-chloro-4-(phenylethynyl)benzyl)-2-methylimidazol-5-yl)-N-(((E)-2-phenylethenyl)sulfonyl)-2-propenamide]	220 to 222
CCCCCS(=O)(=O)NC(=O)/C=C/c1c(Cl)nc(C)n1Cc1ccc(-c2ccccc2)cc1Cl [Example 9, (E)-3-[4-chloro-1-(2-chloro-4-phenylbenzyl)-2-methylimidazol-5-yl]-N-(1-pentanesulfonyl)-2-propenamide]	203 to 204
Cc1nc(Cl)c(/C=C/C(=O)NS(=O)(=O)/C=C/c2ccccc2)n1Cc1ccc(-c2ccccc2)cc1Cl [Example 12, (E)-3-(4-chloro-1-(2-chloro-4-phenylbenzyl)-2-methylimidazol-5-yl)-N-(((E)-2-phenylethenyl)sulfonyl)-2-propenamide]	240 to 241
Cc1nc(Cl)c(/C=C/C(=O)NS(=O)(=O)c2ccc(Cl)s2)n1Cc1ccc(-c2ccccc2)cc1Cl [Example 13, (E)-3-(4-chloro-1-(2-chloro-4-phenylbenzyl)-2-methylimidazol-5-yl)-N-((5-chloro-2-thienyl)sulfonyl)-2-propenamide]	229 to 233
CCCOc1ccc(Cn2c(C)nc(Cl)c2/C=C/C(=O)NS(=O)(=O)/C=C/c2ccccc2)c(Cl)c1 [Example 16, (E)-3-(4-chloro-1-(2-chloro-4-(1-propoxy)benzyl)-2-methylimidazol-5-yl)-N-(((E)-2-phenylethenyl)sulfonyl)-2-propenamide]	199 to 201
CCCCCS(=O)(=O)NC(=O)/C=C/c1c(Cl)nc(C)n1Cc1ccc(OCC2CCCC2)cc1Cl [Example 19, (E)-3-(4-chloro-1-(2-chloro-4-((cyclopentyl)methyloxy)benzyl)-2-methylimidazol-5-yl)-N-(1-pentanesulfonyl)-2-propenamide]	177 to 178
Cc1nc(Cl)c(/C=C/C(=O)NS(=O)(=O)/C=C/c2ccccc2)n1Cc1ccc(C(F)(F)F)cc1Cl [Example 29, (E)-3-(4-chloro-1-(2-chloro-4-(trifluoromethyl)benzyl)-2-methylimidazol-5-yl)-N-(((E)-2-phenylethenyl)sulfonyl)-2-propenamide]	261 to 263
Cc1nc(Cl)c(/C=C/C(=O)NS(=O)(=O)/C=C/c2ccccc2)n1Cc1ccc([N+](=O)[O-])cc1Cl [Example 33, (E)-3-(4-chloro-1-(2-chloro-4-nitrobenzyl)-2-methylimidazol-5-yl)-N-(((E)-2-phenylethenyl)sulfonyl)-2-propenamide]	199 to 201
Cc1nc(Cl)c(/C=C/C(=O)NS(=O)(=O)/C=C/c2ccccc2)n1Cc1ccc(/C=C/c2ccccc2)cc1Cl [Example 35, (E)-3-(4-chloro-1-(2-chloro-4-((E)-2-phenylethenyl)benzyl)-2-methylimidazol-5-yl)-N-(((E)-2-phenylethenyl)sulfonyl)-2-propenamide]	230 to 232

Continued, values first:

melting point [°C]	SMILES
227 to 228	Cc1nc(Cl)c(/C=C/C(=O)NS(=O)(=O)/C=C/c2ccccc2)n1Cc1ccc(-c2ccco2)cc1Cl [Example 2, (2E)-3-(4-chloro-1-(2-chloro-4-(2-furyl)benzyl)-2-methylimidazol-5-yl)-N-(((E)-2-phenylethenyl)sulfonyl)-2-propenamide]
250 to 251	Cc1nc(Cl)c(/C=C/C(=O)NS(=O)(=O)/C=C/c2ccccc2)n1Cc1ccc(Br)cc1Cl [Example 8, (E)-3-(1-(4-bromo-2-chlorobenzyl)-4-chloro-2-methylimidazol-5-yl)-N-(((E)-2-phenylethenyl)sulfonyl)-2-propenamide]
245 to 247	Cc1nc(Cl)c(/C=C/C(=O)NS(=O)(=O)c2ccccc2)n1Cc1ccc(-c2ccccc2)cc1Cl [Example 10, (E)-N-benzenesulfonyl-3-[4-chloro-1-(2-chloro-4-phenylbenzyl)-2-methylimidazol-5-yl]-2-propenamide]
234 to 235	Cc1nc(Cl)c(/C=C/C(=O)NS(=O)(=O)c2ccc(Br)s2)n1Cc1ccc(-c2ccccc2)cc1Cl [Example 14, (E)-N-((5-bromo-2-thienyl)sulfonyl)-3-(4-chloro-1-(2-chloro-4-phenylbenzyl)-2-methylimidazol-5-yl)-2-propenamide]
196 to 199	CCCCCOc1ccc(Cn2c(C)nc(Cl)c2/C=C/C(=O)NS(=O)(=O)/C=C/c2ccccc2)c(Cl)c1 [Example 18, (E)-3-(4-chloro-1-(2-chloro-4-(1-pentyloxy)benzyl)-2-methylimidazol-5-yl)-N-(((E)-2-phenylethenyl)sulfonyl)-2-propenamide]
200 to 201	Cc1nc(Cl)c(/C=C/C(=O)NS(=O)(=O)/C=C/c2ccccc2)n1Cc1ccc(OCC2CCCC2)cc1Cl [Example 21, (2E)-3-(4-chloro-1-(2-chloro-4-((cyclopentyl)methyloxy)benzyl)-2-methylimidazol-5-yl)-N-(((E)-2-phenylethenyl)sulfonyl)-2-propenamide]
210 to 212	Cc1nc(Cl)c(/C=C/C(=O)NS(=O)(=O)/C=C/c2ccccc2)n1Cc1ccc(OCC2CCCCC2)cc1Cl [Example 23, (2E)-3-(4-chloro-1-(2-chloro-4-((cyclohexyl)methyloxy)benzyl)-2-methylimidazol-5-yl)-N-(((E)-2-phenylethenyl)sulfonyl)-2-propenamide]
225 to 227	Cc1nc(Cl)c(/C=C/C(=O)NS(=O)(=O)/C=C/c2ccccc2)n1Cc1ccc(OCc2ccccc2)cc1Cl [Example 25, (E)-3-(1-(4-benzyloxy-2-chlorobenzyl)-4-chloro-2-methylimidazol-5-yl)-N-(((E)-2-phenylethenyl)sulfonyl)-2-propenamide]
237 to 238	CSc1ccc(Cn2c(C)nc(Cl)c2/C=C/C(=O)NS(=O)(=O)/C=C/c2ccccc2)c(Cl)c1 [Example 27, (E)-3-(4-chloro-1-(2-chloro-4-(methylthio)benzyl)-2-methylimidazol-5-yl)-N-(((E)-2-phenylethenyl)sulfonyl)-2-propenamide]
202 to 203	Cc1nc(Cl)c(/C=C/C(=O)NS(=O)(=O)/C=C/c2ccccc2)n1Cc1ccc(COc2ccccc2)cc1Cl [Example 31, (E)-3-(4-chloro-1-(2-chloro-4-(phenoxymethyl)benzyl)-2-methylimidazol-5-yl)-N-(((E)-2-phenylethenyl)sulfonyl)-2-propenamide]
215 to 216	CCCCCS(=O)(=O)NC(=O)/C=C/c1c(Cl)nc(C)n1Cc1ccc(/C=C/c2ccccc2)cc1Cl [Example 41, (E)-3-(4-chloro-1-(2-chloro-4-((E)-2-phenylethenyl)benzyl)-2-methylimidazol-5-yl)-N-(1-pentanesulfonyl)-2-propenamide]
